pIC50: −log10 of the molar value.
Columns and labels:
[1] = target: T1, glucocorticoid receptor (GR) (Homo sapiens, UniProt P04150); assay: Binding to the glucocorticoid receptor, recombinantly produced receptor, cytosol preparations of Sf9 cells, reference [3H]-dexamethasone; conditions: recombinant GR
T1 construct: made in house; host or cells: Sf9 cells infected with recombinant baculovirus (cytosol preparation)
T1 sequence (P04150 1-777): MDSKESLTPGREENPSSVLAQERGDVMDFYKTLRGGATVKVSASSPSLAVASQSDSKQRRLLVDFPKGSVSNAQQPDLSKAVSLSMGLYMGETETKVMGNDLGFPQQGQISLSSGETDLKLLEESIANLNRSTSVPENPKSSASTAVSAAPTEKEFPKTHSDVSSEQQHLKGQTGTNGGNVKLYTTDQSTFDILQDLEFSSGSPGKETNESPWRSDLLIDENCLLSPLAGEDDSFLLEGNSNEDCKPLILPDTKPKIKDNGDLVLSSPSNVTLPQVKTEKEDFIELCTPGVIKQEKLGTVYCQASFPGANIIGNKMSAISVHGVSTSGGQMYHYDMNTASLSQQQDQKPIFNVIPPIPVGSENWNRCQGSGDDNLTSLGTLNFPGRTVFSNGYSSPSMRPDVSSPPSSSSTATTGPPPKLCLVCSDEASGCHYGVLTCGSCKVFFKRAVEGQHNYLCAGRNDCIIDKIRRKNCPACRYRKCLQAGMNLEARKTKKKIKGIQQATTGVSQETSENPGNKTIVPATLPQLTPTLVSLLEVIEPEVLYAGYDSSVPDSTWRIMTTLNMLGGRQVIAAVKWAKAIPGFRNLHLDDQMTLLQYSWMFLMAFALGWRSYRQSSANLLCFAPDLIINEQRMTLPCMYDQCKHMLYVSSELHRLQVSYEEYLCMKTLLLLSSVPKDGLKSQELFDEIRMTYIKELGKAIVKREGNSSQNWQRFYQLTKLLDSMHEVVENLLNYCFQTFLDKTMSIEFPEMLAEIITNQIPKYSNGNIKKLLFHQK
Text: (§1) The binding of substances to the glucocorticoid receptor (GR) and other steroid hormone-receptors (mineral corticoid receptors (MR), progesterone receptors (PR) and androgen receptors (AR)) is examined with the aid of recombinantly produced receptors. Cytosol preparations of Sf9 cells, which had been infected with recombinant baculoviruses that code for the GR, are used for the binding tests. In comparison to the reference substance [^3H]-dexamethasone, the substances show a high affinity to the GR.

[2] = target: T2, progesterone receptors (PR) (Homo sapiens, UniProt P06401); assay: Binding to other steroid hormone receptors with recombinantly produced receptors: progesterone receptor
T2 construct: made in house
T2 sequence (P06401 1-933): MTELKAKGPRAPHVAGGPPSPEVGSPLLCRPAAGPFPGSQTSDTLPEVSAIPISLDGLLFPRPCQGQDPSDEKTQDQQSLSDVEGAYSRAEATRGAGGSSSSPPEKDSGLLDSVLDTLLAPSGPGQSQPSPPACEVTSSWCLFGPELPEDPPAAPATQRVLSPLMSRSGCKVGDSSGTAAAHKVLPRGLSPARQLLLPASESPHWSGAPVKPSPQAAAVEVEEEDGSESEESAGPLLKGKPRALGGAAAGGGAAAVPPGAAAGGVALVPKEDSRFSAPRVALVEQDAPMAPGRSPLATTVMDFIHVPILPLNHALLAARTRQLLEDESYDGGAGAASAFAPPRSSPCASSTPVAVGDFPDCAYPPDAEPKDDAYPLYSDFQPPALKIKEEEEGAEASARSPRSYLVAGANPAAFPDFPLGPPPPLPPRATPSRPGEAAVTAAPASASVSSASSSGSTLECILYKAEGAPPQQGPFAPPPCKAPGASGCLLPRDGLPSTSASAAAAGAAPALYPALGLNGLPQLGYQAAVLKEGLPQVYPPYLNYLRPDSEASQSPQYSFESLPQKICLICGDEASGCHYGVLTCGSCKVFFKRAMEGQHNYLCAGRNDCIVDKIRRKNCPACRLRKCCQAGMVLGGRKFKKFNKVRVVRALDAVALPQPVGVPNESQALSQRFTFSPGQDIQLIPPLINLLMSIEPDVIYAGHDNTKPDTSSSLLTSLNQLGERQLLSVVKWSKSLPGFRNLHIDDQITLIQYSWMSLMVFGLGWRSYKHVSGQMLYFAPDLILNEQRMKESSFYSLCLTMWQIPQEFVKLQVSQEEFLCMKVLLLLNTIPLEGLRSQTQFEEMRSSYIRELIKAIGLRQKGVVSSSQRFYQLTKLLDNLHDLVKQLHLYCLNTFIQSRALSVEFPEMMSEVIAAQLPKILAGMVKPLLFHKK
Text: as §1

[3] = system: secretion of the cytokine IL-8, triggered by lipopolysaccharide (LPS), in the human monocyte cell line THP-1; assay: Inhibition of LPS-triggered secretion of the cytokine IL-8 in THP-1 cells (ELISA of supernatant); format: cell-based; conditions: LPS-triggered IL-8 secretion
Method: The concentration of the cytokines was determined in the supernatant by means of commercially available ELISA kits.

Cc1ncc2c(NC3c4cc(C)c(F)c(O)c4C(C)(C)CC3(O)C(F)(F)F)ccc(F)c2n1 (racemic) [Example 285, 6-Fluoro-1-[(8-fluoro-2-methylquinazolin-5-yl)amino]-4,4,7-trimethyl-2-(trifluoromethyl)-1,2,3,4-tetrahydronaphthalene-2,5-diol]
pIC50 [1]: 7.07
pIC50 [2]: < 6.00
pIC50 ([3]; Homo sapiens, read-out: inhibition IC50(IL8)): 7.40
eff (IL8 inhibition) [3]: 79%
